US20170283859A1, “MICROFLUIDIC qRT-PCR ANALYSIS OF SINGLE CELLS” (The Trustees Of Columbia University In the City of New York, priority 2014, published 2017)

What was measured:
Assay type in all cases: cell-based
[1] = tested on: CDKN1A transcript levels in single MCF-7 cells; experiment: Microfluidic array single-cell RT-qPCR, drug induced CDKN1A expression
Protocol: During the operation of the array chip, a single analysis unit is selected through the multiplexed valves and then 4x10^6 magnetic beads are introduced (100 nL/s for 20 s) until all analysis units have beads with a syringe pump while an external magnet is held under the chambers. The amount of beads is determined according to the manufacturer's reported bead density and verified by pipetting beads onto a glass slide and counting the total amount of beads with ImageJ software. Next a single analysis unit is reselected with the multiplexed valves and 1.25 μL of cell-containing carrier buffer are introduced (concentration: 10^5 cells/mL, flow rate: 15 nL/s, and infusion time: 83.3 seconds) into the microfluidic device and travel through the cell trap with the first cell to reach the trapping structure becoming trapped. The width of the constriction (5 μm) is smaller than the diameter of the cells (18±2 μm) and therefore the single cell can be immobilized in the trap.
Once a single cell becomes immobilized, the back control valve is opened to allow carrier fluid, potentially containing additional cells, to bypass the trapping region and flow directly to the outlet. To further ensure that no cells remain in the outlet well, buffer is injected into the inlet well with a syringe with a 25 gauge stainless steel needle. Lysis buffer is introduced into the cell trap region of each analysis unit at a flow rate of 2 μl/min over a 5-min period to lyse the trapped cell (Sun et al. 2015). After cell lysis the beads were mixed with the cell lysate by manually moving the magnet and captured the mRNA in the cell content, based on complimentary base pairing between the polyA tails of the mRNA and the oligo(dT)25 residues covalently coupled to the bead surfaces. […] The beads were moved into the active chamber and mixed with the sample (mRNA in cell lysate or XenoRNA) by magnet-driven motion. This process is then repeated for the remaining units of the array chip until five of the RT-qPCR chambers each contain beads with bound mRNA. The sixth chamber provides no-template control.
Reverse transcription is performed in all of the six chambers to convert the mRNA into cDNA, using the bead-bound oligo(dT)25 as a primer and with the chamber temperatures controlled simultaneously in closed loop by the integrated heater and temperature sensor (RT: 10 min at 25° C. and 50 min at 42° C.). The resulting cDNA template for PCR is amplified (qPCR: 10 min at 95° C., followed by 40 cycles of 15 s at 95° C. and 1 min at 60° C.) while the accumulation of products is imaged on a fluorescence microscope using a hydrolysis probe/primer set (TaqMan®). The reagent probe/primer consists of a fluorescein amidite (FAM) reporter dye, a minor groove binder and a nonfluorescent quencher (NFQ). Initially, the fluorescence of FAM is suppressed by NFQ. During the PCR annealing process, the probe binds to a complementary region of the target template. Then, during the elongation process that follows, […] from the probe, causing the fluorescent intensity of FAM to increase. To correct for fluorescent fluctuations due to batch-to-batch changes in cavity volume and PCR component concentrations, a passive reference dye (ROX) is employed to normalize the FAM signal during real-time measurements. Fluorescent intensities of ROX and FAM are acquired and measured at the end of each PCR cycle (FIG. 29).
In this example, stress induced gene expression in single cells was investigated by treating cells with MMS, an alkylating agent, and then analyzing them by on-chip RT-qPCR. […]
In each test, five MMS treated or untreated single cells were isolated and immobilized in five separate analysis units of the array, and the remaining unit was used as a no-template control. Similar to the above mentioned protocol, after cell trapping and lysis, the two-step RT-qPCR was initialized. […]

[2] = tested on: GAPDH transcript level in single MCF-7 cells; experiment: Microfluidic array single-cell RT-qPCR, housekeeping gene GAPDH; conditions: 120 μg/mL MMS for 2.5 h
Protocol: During the operation of the array chip, a single analysis unit is selected through the multiplexed valves and then 4x10^6 magnetic beads are introduced (100 nL/s for 20 s) until all analysis units have beads with a syringe pump while an external magnet is held under the chambers. The amount of beads is determined according to the manufacturer's reported bead density and verified by pipetting beads onto a glass slide and counting the total amount of beads with ImageJ software. […] The resulting cDNA template for PCR is amplified (qPCR: 10 min at 95° C., followed by 40 cycles of 15 s at 95° C. and 1 min at 60° C.) while the accumulation of products is imaged on a fluorescence microscope using a hydrolysis probe/primer set (TaqMan®). […] Initially, the fluorescence of FAM is suppressed by NFQ. […] Fluorescent intensities of ROX and FAM are acquired and measured at the end of each PCR cycle (FIG. 29). […] The transcript levels of CDKN1 A and the housekeeping gene GAPDH was measured in MMS treated (120 μg/mL for 2.5 h) and untreated single MCF-7 cells using the microfluidic array. […]

[3] = tested on: CDKN1A gene expression in single MCF-7 cells; experiment: Fully integrated on-chip single-cell RT-qPCR (single analysis unit device), induction of CDKN1A
Protocol: In this example, all steps of single-cell RT-qPCR were integrated in the device from Example 1. […] MCF-7 cells were incubated with MEM media supplemented with 10% FBS and […], and were kept at 37° C. in a humidified incubator containing 5% CO2. The Cells used herein, whether treated or not, were from the same generation of MCF-7 cells to eliminate potential generational gene expression differences. The MCF-7 cell suspension was first diluted to 10^5 cells per mL in a microcentrifuge tube, and mixed to homogenize the suspension and break up cell clusters. The homogenized cell suspension was then driven into the device through the cell inlet via a syringe pump while valves were used to manipulate the direction of the flow. The trapping structure was observed under a microscope. As all cells were directed through the cell trapping unit and the width of the channel at the protruding structure (i.e., the portion of the mold that narrows the channel) within the trapping unit (5 μm) is smaller than the average diameter of MCF-7 cells (18±2 μm), a single cell was immobilized in the trap. Once a single cell was trapped, the upstream control valve (FIG. 5) was activated while the cell washing outlet was opened to direct (the potentially cell-containing) carrier fluid away from the cell trap. On average, 1.5 cells were introduced into the device per second. Single cells were consistently trapped in the microchip in 150 seconds or less. A lysis solution (100 mM TrisHCl, pH 7.5, 500 mM LiCl, 10 mM EDTA, 1% LiDS, 5 mM dithiothreitol) was used to chemically lyse the trapped cells. By mixing oligo(dT)25 functionalized beads with the cell lysate, mRNA templates from a single cell were captured and purified on the surface of the beads. The beads were then moved back to the reaction chamber and retained by an external magnet. With the cell trapping and washing outlets closed and the upstream and downstream valves open (FIG. 5), RT reagents were pipetted into the device chamber, followed by the closure of all the inlets and outlets. Then a pulsed temperature RT protocol was carried out (10 min at 25° C. and 50 min at 42° C.). Similarly, after RT, PCR reagents were introduced into the device which simultaneously flushed away the RT reagent, while the chip was situated on a magnet to immobilize the beads. Once the PCR reagents completely filled the reaction chamber, all the outlets were sealed with plugs. Then the platform was placed on the stage of a fluorescent microscope. Each PCR process was initialized and thermocycled with the following protocols: 10 min at 95° C., followed by 35 cycles of 15 s at 95° C. and 1 min at 60° C. The gene expressions of single cells were assayed for the induction of CDKN1A using a hydrolysis probe/primer. […] The threshold was calculated to be 0.07. […]

COS(C)(=O)=O [MMS, methyl methanesulfonate]
ΔCq (difference between Cq of treated and untreated cells), CDKN1A ([1]; 120 μg/mL MMS for 2.5 h): 3.0 | mean Cq value of CDKN1A ([1]; 120 μg/mL MMS for 2.5 h, untreated 33.5): 30.5 | transcript levels of CDKN1A on treating single cells with MMS ([1]; 120 μg/mL for 2.5 h): upregulated significantly | upregulation of CDKN1A expression vs MMS dosage ([1]; 30 to 150 μg/mL, 2.5 h): positively correlated with MMS dosage | mean Cq value of CDKN1A ([1]; dosage 30 μg/ml, 2.5 h): 33.5 | mean Cq value of CDKN1A ([1]; dosage 150 μg/ml, 2.5 h): 29.3 | mean Cq value of CDKN1A ([1]; exposure time 0.5 h): 32.9 | mean Cq value of CDKN1A ([1]; exposure time 4.5 h): 28.1 | inter-unit Cq difference for CDKN1A ([1]; first dose step (doses from 30 to 150 μg/ml, 2.5 h)): 0.4 | inter-unit Cq difference for CDKN1A ([1]; fourth dose step (doses from 30 to 150 μg/ml, 2.5 h)): 0.7 | upregulation of CDKN1A expression vs treating time duration ([1]; range of 0.5 to 4.5 h): positively correlated with treating time duration | inter-unit Cq difference for CDKN1A ([1]; second dose step (doses from 30 to 150 μg/ml, 2.5 h)): 0.7 | inter-unit Cq difference for CDKN1A ([1]; third dose step, 90 to 120 μg/ml, 2.5 h): 1.3 | ΔCq (difference between Cq of treated and untreated cells), GAPDH [2]: approximately 0.5 | amount of starting templates higher than in untreated single cells ([3]; 2.5 h MMS treated MCF-7 cells): about 45 folds | Cq value of CDKN1A RT-qPCR ([3]; MMS treated single MCF-7 cells, 2.5 h, mean of five repeated tests, untreated 32.3): 26.8 | mean Cq value lower than untreated single cells ([3]; MMS treated vs untreated single MCF-7 cells): 5.48 cycles | transcript levels of the CDKN1A gene after MMS treatment ([3]; single MCF-7 cells): upregulated significantly
